In patent publication US20110237600A1, “COMPOUNDS FOR IMPROVING LEARNING AND MEMORY” (AMNESTIX, INC., priority 2008, published 2011):

Legend:
[1] = test system: undifferentiated PC12 cells; settings: Zhang et al., Cell Mol Biol Lett., 2006; cited from earlier work
STK10 = target: T1, STK10 (Homo sapiens, UniProt O94804); assay: KinomeScan active-site dependent competition binding assay; settings: 10 μM concentration
T1 construct: purchased Ambit
Source text: (§1) Active-site dependent competition binding assays can be performed with hundreds of known kinases in parallel (Fabian et al., Nat Biotechnol. 2005, 23, 329; Karaman et al., Nat Biotechnol. 2008, 26, 127) in order to determine how compounds bind to both intended and unintended kinases. Such methods allow the assessment of the specificity of a kinase inhibitor.
(§2) Based on a competition binding assay that quantitatively measures the ability of a test compound to compete with an immobilized, active-site directed ligand it is possible to scan the competitive effect of the test compound for a broad variety of kinases in parallel (KinomeScan, Ambit, San Diego, Calif., USA; Fabian et al., Nat Biotechnol. 2005, 23, 329). Based on this analysis it is possible to assess the inhibitory specificity of a test compound. The assay was performed with 1-(8-cyclohexyl-5 isoquinoline-sulfonyl) 2-methyl-piperazine in 10 μM concentration. As result of the assay one obtains the percentage of competition of the active-site directed ligand for each of the over 400 kinases of the test due to the incubation with the test compounds. FIG. 3 lists the kinases ranked according to their binding to 1-(8-cyclohexyl-5 isoquinoline-sulfonyl) 2-methyl-piperazine (compound A). Strong binding (more than 50%) of 1-(8-cyclohexyl-5 isoquinoline-sulfonyl) 2-methyl-piperazine is found only for the kinases CSNK1E, CSNK1A1L, CSNK1D, MERTK, SLK, IRAK1, STK10, MAPK12, PHKG2, MAPK11, MET, AXL, STK32B, AURKC, CLK3, RPS6KA6, PDGFRB, KDR, CDK2.

MET = target: T2, MET (Homo sapiens, UniProt P08581); assay: as above; settings: 10 μM concentration
T2 construct: purchased Ambit
Source text: as §1, §2

CSNK1E = target: T3, CSNK1E (Homo sapiens, UniProt P49674); assay: as above; settings: 10 μM concentration
T3 construct: purchased Ambit
Source text: as §1, §2

AURKC = target: T4, AURKC (Homo sapiens, UniProt Q9UQB9); assay: as above; settings: 10 μM concentration
T4 construct: purchased Ambit
Source text: as §1, §2

CDK2 = target: T5, CDK2 (Homo sapiens, UniProt P24941); assay: as above; settings: 10 μM concentration
T5 construct: purchased Ambit
Source text: as §1, §2

RPS6KA6 = target: T6, RPS6KA6 (Homo sapiens, UniProt Q9UK32); assay: as above; settings: 10 μM concentration
T6 construct: purchased Ambit
Source text: as §1, §2

MAPK11 = target: T7, MAPK11 (Homo sapiens, UniProt Q15759); assay: as above; settings: 10 μM concentration
T7 construct: purchased Ambit
Source text: as §1, §2

CSNK1D = target: T8, CSNK1D (Homo sapiens, UniProt P48730); assay: as above; settings: 10 μM concentration
T8 construct: purchased Ambit
Source text: as §1, §2

PDGFRB = target: T9, PDGFRB (Homo sapiens, UniProt P09619); assay: as above; settings: 10 μM concentration
T9 construct: purchased Ambit
Source text: as §1, §2

MERTK = target: T10, MERTK (Homo sapiens, UniProt Q12866); assay: as above; settings: 10 μM concentration
T10 construct: purchased Ambit
Source text: as §1, §2

AXL = target: T11, AXL (Homo sapiens, UniProt P30530); assay: as above; settings: 10 μM concentration
T11 construct: purchased Ambit
Source text: as §1, §2

KDR = target: T12, KDR (Homo sapiens, UniProt P35968); assay: as above; settings: 10 μM concentration
T12 construct: purchased Ambit
Source text: as §1, §2

IRAK1 = target: T13, IRAK1 (Homo sapiens, UniProt P51617); assay: as above; settings: 10 μM concentration
T13 construct: purchased Ambit
Source text: as §1, §2

SLK = target: T14, SLK (Homo sapiens, UniProt Q9H2G2); assay: as above; settings: 10 μM concentration
T14 construct: purchased Ambit
Source text: as §1, §2

CLK3 = target: T15, CLK3 (Homo sapiens, UniProt P49761); assay: as above; settings: 10 μM concentration
T15 construct: purchased Ambit
Source text: as §1, §2

CSNK1A1L = target: T16, CSNK1A1L (Homo sapiens, UniProt Q8N752); assay: as above; settings: 10 μM concentration
T16 construct: purchased Ambit
Source text: as §1, §2

STK32B = target: T17, STK32B (Homo sapiens, UniProt Q9NY57); assay: as above; settings: 10 μM concentration
T17 construct: purchased Ambit
Source text: as §1, §2

MAPK12 = target: T18, MAPK12 (Homo sapiens, UniProt P53778); assay: as above; settings: 10 μM concentration
T18 construct: purchased Ambit
Source text: as §1, §2

PHKG2 = target: T19, PHKG2 (Homo sapiens, UniProt P15735); assay: as above; settings: 10 μM concentration
T19 construct: purchased Ambit
Source text: as §1, §2

[2] = test system: hippocampal slices from 3-4 week-old Wistar rats; assay: In vitro LTP analysis, theta burst stimulation, fEPSP slope recording; assay type: cell-based, rat
Source text: The effect of long-term potentiation (LTP) which can be measured in vitro, is generally thought to correlate with memory. Stimulation of an afferent neuron or neuronal cell area results in membrane potentials of a downstream positioned neuron or neuronal cell area. Such membrane potentials are long-term potentiated at least over hours after stimulating the afferent neurons e.g. with a theta burst paradigm. Therefore, LTP is regarded as memory on cellular level. Electrophysiological LTP measurements on neurons incubated with a test compound in comparison to sham incubated neurons can be used to assess the compounds' potential to enhance memory (See generally Cooke and Bliss, Brain, 2006, 129 (1659), which is hereby incorporated by reference).
LTP is thought to be suitable as in vitro model for the assessment of memory function. Therefore, it allows analysis of test compounds, e.g. the compounds of the invention, e.g. 1-(8-cyclohexyl-5 isoquinoline-sulfonyl) 2-methyl-piperazine for memory enhancing potential. Experiments were done on hippocampal slices from 3-4 week-old Wistar rats. The rats were sacrificed by decapitation without prior anesthesia. […] A platinum/tungsten electrode was then lowered into the CA1 dendritic layer under visual control until stable amplitudes of the recorded fEPSP were achieved. […] Then, the test compound was washed in for a period of 30 min during which stimulation was continued at 0.05 Hz and fEPSPs were continuously recorded. […] All slices recorded simultaneously were treated with the same time schedule. From the recorded data, the amplitudes of the evoked fEPSP were automatically calculated by the recording software (Synchroslice data acquisition and analysis, LRE) as the negative peak of the postsynaptic signal with respect to baseline and plotted online. All recorded signals were digitally stored for later offline analysis, in particular for fEPSP negative slope calculation. From the stored single sweeps, the slope was calculated between 30% and 70% of the maximum fEPSP amplitude. […]

over 400 kinases = assay: Kinase specificity analysis (KinomeScan panel); settings: 10 μM concentration; strong binding (more than 50%) for 19 kinases only
Source text: as §1
as §2, with “Strong binding (more than 50%) of 1-(8-cyclohexyl-5 isoquinoline-sulfonyl) 2-methyl-piperazine is found only for the kinases CSNK1E, CSNK1A1L, CSNK1D, MERTK, SLK, IRAK1, STK10, MAPK12, PHKG2, MAPK11, MET, AXL, STK32B, AURKC, CLK3, RPS6KA6, PDGFRB, KDR, CDK2.” left out

T13 sequence (P51617 whole entry): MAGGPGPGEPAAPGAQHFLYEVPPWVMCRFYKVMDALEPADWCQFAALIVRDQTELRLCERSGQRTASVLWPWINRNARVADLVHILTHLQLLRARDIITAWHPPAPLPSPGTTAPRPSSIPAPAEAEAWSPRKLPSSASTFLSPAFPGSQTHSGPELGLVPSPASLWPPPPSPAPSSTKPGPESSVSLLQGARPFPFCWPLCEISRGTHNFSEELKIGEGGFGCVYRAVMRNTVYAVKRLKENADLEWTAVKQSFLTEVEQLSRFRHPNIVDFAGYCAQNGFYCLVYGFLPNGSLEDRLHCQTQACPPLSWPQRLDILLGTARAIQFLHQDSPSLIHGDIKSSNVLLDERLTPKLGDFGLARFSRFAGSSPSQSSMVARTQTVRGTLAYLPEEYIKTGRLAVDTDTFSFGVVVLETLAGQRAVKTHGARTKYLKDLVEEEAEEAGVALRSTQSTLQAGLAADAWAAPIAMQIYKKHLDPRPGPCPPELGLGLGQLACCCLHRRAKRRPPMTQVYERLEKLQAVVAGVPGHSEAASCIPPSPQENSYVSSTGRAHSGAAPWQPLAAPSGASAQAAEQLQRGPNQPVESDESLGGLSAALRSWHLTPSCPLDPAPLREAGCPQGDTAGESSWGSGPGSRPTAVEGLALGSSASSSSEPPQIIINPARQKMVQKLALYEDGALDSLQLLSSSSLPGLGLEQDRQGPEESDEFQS
T14 sequence (Q9H2G2 whole entry): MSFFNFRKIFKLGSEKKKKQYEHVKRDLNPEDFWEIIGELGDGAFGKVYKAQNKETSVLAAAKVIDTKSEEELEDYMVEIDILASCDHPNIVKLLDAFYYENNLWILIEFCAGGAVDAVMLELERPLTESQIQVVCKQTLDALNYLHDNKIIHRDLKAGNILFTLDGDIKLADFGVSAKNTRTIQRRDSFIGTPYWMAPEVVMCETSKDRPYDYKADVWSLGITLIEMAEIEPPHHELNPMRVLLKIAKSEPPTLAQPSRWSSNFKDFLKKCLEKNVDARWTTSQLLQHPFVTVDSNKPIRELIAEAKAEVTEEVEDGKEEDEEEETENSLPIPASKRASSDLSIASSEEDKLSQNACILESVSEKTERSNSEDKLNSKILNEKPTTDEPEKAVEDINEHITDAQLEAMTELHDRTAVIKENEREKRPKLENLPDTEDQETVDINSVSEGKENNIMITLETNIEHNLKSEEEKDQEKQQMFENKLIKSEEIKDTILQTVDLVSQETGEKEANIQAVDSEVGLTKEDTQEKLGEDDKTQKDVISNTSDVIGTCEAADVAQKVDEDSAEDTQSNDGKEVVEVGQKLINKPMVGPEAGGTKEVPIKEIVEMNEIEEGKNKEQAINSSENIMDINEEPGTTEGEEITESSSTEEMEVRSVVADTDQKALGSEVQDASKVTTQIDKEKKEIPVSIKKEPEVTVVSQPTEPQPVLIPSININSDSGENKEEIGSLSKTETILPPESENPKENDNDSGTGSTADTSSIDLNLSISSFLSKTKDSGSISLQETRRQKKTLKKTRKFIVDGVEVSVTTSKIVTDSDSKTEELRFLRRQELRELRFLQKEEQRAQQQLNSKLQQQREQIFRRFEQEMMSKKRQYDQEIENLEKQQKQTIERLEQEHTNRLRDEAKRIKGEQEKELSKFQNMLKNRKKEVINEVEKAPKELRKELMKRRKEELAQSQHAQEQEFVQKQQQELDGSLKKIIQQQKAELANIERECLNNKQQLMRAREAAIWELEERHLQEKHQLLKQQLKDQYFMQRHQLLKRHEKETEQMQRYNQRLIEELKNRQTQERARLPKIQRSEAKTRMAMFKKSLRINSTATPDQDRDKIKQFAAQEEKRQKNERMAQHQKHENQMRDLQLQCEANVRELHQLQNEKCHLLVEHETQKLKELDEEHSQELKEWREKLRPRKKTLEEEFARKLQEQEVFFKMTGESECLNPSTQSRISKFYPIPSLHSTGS
T10 sequence (Q12866 21-999): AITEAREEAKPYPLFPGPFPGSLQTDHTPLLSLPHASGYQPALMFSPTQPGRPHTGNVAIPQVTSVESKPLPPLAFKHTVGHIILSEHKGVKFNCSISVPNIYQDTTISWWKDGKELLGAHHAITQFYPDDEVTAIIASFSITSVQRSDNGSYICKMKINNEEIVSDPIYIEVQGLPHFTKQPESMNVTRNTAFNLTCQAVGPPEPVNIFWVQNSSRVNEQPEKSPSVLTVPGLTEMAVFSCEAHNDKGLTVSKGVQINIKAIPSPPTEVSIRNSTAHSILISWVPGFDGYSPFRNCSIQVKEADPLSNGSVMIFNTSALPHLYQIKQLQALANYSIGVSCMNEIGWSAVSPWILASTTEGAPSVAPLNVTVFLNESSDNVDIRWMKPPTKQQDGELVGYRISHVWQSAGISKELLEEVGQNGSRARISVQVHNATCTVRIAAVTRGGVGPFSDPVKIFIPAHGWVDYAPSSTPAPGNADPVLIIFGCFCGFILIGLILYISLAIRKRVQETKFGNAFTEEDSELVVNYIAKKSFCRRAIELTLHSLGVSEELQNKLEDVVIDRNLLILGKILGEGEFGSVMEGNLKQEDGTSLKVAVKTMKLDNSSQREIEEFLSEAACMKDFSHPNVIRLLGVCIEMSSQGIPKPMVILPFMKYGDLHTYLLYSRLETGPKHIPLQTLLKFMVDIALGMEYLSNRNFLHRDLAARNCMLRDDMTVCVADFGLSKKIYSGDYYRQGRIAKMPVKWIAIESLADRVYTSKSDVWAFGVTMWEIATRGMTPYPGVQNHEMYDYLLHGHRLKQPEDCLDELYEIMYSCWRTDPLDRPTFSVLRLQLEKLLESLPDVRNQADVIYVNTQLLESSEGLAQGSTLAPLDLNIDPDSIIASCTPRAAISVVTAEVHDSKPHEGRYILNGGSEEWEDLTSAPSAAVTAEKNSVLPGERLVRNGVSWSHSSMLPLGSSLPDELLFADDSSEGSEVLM
T18 sequence (P53778 whole entry): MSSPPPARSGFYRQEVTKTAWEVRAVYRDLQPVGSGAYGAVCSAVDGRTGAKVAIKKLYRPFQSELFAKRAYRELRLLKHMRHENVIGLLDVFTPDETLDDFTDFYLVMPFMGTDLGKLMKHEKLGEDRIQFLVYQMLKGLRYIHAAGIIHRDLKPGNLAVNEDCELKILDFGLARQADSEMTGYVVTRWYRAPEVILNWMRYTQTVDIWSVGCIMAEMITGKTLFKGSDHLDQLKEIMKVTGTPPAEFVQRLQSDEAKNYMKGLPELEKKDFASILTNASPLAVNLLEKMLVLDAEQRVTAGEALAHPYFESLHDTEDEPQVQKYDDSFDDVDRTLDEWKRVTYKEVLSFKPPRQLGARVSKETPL
T19 sequence (P15735 whole entry): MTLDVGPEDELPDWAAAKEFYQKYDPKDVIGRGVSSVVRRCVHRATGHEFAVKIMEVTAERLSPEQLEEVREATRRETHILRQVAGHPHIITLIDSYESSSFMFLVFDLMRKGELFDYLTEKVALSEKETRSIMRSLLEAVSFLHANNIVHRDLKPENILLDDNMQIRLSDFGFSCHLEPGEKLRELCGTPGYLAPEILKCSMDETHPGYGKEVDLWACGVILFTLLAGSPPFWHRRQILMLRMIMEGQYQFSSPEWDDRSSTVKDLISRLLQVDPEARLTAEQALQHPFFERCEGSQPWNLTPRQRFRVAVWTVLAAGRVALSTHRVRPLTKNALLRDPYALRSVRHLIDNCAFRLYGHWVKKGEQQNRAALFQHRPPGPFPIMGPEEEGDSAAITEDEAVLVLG
T2 sequence (P08581 25-1390): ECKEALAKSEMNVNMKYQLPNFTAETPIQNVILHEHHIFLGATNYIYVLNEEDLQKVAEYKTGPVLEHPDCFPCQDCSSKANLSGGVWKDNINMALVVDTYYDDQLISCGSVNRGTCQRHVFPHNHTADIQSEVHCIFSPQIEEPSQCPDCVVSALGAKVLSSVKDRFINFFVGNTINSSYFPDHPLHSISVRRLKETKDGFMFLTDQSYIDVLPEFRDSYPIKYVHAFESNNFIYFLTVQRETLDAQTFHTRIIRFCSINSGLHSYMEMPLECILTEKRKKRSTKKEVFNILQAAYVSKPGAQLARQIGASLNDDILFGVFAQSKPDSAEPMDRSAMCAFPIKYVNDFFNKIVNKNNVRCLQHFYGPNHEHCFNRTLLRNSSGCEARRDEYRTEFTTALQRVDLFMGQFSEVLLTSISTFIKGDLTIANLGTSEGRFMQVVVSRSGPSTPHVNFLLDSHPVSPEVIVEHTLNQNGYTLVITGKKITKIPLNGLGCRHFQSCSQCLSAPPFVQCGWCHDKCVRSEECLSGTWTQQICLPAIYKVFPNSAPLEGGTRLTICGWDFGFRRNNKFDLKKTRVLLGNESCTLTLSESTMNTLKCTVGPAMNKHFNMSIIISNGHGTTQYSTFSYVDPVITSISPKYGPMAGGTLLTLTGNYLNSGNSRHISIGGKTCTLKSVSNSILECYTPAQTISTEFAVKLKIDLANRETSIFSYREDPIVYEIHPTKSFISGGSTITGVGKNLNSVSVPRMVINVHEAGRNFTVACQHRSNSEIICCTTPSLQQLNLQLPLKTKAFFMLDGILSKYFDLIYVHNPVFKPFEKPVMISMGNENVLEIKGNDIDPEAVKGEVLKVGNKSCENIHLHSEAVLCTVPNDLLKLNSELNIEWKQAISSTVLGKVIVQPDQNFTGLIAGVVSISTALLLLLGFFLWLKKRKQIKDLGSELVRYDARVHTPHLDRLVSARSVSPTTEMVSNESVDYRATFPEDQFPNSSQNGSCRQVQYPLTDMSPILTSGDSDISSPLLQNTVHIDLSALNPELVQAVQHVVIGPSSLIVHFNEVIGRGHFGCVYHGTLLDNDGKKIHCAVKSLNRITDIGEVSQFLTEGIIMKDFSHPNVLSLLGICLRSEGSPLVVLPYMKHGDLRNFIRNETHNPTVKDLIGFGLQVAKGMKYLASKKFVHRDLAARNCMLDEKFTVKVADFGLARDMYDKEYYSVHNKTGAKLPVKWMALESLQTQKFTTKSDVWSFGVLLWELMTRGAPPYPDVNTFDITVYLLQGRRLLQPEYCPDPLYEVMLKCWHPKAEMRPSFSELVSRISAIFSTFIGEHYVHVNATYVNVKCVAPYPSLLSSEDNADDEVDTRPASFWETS

In the case of O=S(=O)(c1cccc2cnccc12)N1CCCNCC1 [Fasudil], the neurite outgrowth [1] is given as “increase neurite outgrowth”.
With CC1CNCCN1S(=O)(=O)c1ccc(C2CCCCC2)c2cnccc12 (stereo not drawn) [1-(8-cyclohexyl-5 isoquinoline-sulfonyl) 2-methyl-piperazine] the “binding (percentage of competition of the active-site directed ligand)” value (STK10) was “more than 50%”, the “binding (percentage of competition of the active-site directed ligand)” value (MET) was “more than 50%” and the “binding (percentage of competition of the active-site directed ligand)” value (CSNK1E) was “more than 50%”. For the same compound, the “binding (percentage of competition of the active-site directed ligand)” value (AURKC) was “more than 50%”, the “binding (percentage of competition of the active-site directed ligand)” value (CDK2) was “more than 50%” and the “binding (percentage of competition of the active-site directed ligand)” value (RPS6KA6) was “more than 50%”. For the same compound, the “binding (percentage of competition of the active-site directed ligand)” value (MAPK11) was “more than 50%”, the “binding (percentage of competition of the active-site directed ligand)” value (CSNK1D) was “more than 50%” and the “binding (percentage of competition of the active-site directed ligand)” value (PDGFRB) was “more than 50%”. The “binding (percentage of competition of the active-site directed ligand)” value (MERTK) was “more than 50%”, the “binding (percentage of competition of the active-site directed ligand)” value (AXL) was “more than 50%” and the “binding (percentage of competition of the active-site directed ligand)” value (KDR) was “more than 50%”. The “binding (percentage of competition of the active-site directed ligand)” value (IRAK1) was “more than 50%”, the “binding (percentage of competition of the active-site directed ligand)” value (SLK) was “more than 50%” and the “binding (percentage of competition of the active-site directed ligand)” value (CLK3) was “more than 50%”. The “binding (percentage of competition of the active-site directed ligand)” value (CSNK1A1L) was “more than 50%”, the “binding (percentage of competition of the active-site directed ligand)” value (STK32B) was “more than 50%” and the “binding (percentage of competition of the active-site directed ligand)” value (MAPK12) was “more than 50%”. The “binding (percentage of competition of the active-site directed ligand)” value (PHKG2) was “more than 50%”, the “increase in EPSP slopes when the compound is removed” value ([2]; 100 μM concentration) was “most obvious and very strong” and the “LTP induction (fEPSP slope)” value ([2]; compound washed in at increasing concentrations (1 μM, 10 μM and 100 μM), control slices about 140% of pre-stimulus levels) was “complete block of LTP-induction”. For the same compound, the “EPSP slopes when the compound is removed” value ([2]; wash-out 30 min after LTP induction, 1 μM, 10 μM and 100 μM) was “increase in EPSP slopes” and the “inhibitory specificity across the kinase panel” value (over 400 kinases) was “very selective kinase inhibitor”.
